# Measured values reported in ChEMBL document CHEMBL1129763, “Acylhydrazones as M1/M3 selective muscarinic agonists” (Bioorg Med Chem Lett, 1996).
# Legend:
# [1] = molecular target: T1, Muscarinic acetylcholine receptor M1 (Rattus norvegicus, UniProt P08482); test: Ability to displace [3H]- pirenzepine from M1 receptor in rat hippocampal membranes; type: cell membranes, Hippocampus
# T1 sequence (P08482 whole entry): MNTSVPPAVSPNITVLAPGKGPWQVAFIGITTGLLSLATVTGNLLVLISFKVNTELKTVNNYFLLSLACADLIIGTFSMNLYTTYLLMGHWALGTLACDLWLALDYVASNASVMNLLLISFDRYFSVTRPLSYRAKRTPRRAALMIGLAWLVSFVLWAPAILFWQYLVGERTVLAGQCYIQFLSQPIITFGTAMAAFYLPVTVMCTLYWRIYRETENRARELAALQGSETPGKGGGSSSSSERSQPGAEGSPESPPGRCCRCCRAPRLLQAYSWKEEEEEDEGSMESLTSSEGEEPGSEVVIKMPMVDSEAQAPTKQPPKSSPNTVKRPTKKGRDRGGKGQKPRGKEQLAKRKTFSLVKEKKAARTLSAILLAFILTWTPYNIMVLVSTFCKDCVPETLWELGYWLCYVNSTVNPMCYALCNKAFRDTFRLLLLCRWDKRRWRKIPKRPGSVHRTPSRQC
# [2] = molecular target: Muscarinic acetylcholine receptor M3 (Cavia porcellus) (UniProt Q8VH26); test: Compound was evaluated for intrinsic activity at M3 receptor by measuring isometric contractions of the isolated guinea pig trachea; type: tissue-based
# Chain of Muscarinic acetylcholine receptor M3 (Cavia porcellus) (Q8VH26 1-587): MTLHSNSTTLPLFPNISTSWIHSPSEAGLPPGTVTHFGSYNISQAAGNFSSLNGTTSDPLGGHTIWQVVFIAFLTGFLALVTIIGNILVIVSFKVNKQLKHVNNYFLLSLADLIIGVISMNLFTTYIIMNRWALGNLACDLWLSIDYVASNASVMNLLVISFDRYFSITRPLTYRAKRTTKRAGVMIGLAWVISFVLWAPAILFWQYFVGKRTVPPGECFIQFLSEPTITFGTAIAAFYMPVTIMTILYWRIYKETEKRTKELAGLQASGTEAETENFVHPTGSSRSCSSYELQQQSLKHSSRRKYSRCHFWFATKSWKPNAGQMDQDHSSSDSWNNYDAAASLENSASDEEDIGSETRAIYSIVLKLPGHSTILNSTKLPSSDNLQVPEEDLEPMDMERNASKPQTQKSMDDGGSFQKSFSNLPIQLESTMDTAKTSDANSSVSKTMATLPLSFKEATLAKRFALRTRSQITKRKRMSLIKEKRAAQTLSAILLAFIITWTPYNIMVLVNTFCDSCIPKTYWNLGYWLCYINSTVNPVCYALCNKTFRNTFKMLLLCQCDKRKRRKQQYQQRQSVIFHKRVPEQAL
SMILES,Ki [1] [µM],Intrinsic activity [2] [%]
CCCCCCC(=O)N/N=C1\CC2(CCN(C)CC2)OC1C (centres undefined),25,
CCCCC(=O)N/N=C1\CC2(CCN(C)CC2)OC1C (centres undefined),41,
CC1OC2(CCN(C)CC2)C/C1=N\NC(=O)CC1CCCCC1 (centres undefined),30,
CC(C)CC(=O)N/N=C1\CC2(CCN(C)CC2)OC1C (centres undefined),90,
CCCCCCCCCC(=O)N/N=C1\CC2(CCN(C)CC2)OC1C (centres undefined),14.4,
CC1OC2(CCN(C)CC2)C/C1=N\NC(=O)c1ccccc1 (centres undefined),78,
COC(=O)N/N=C1\CC2(CCN(C)CC2)OC1C (centres undefined),25,
CCCC(=O)N(C)/N=C1\CC2(CCN(C)CC2)OC1C (centres undefined),16,
CCCCCCCC(=O)N(C)/N=C1\CC2(CCN(C)CC2)OC1C (centres undefined),8.8,
CCCCCC(=O)N/N=C1\CC2(CCN(C)CC2)OC1C (centres undefined),25,
CCCCCCCCC(=O)N/N=C1\CC2(CCN(C)CC2)OC1C (centres undefined),9,
CC1OC2(CCN(C)CC2)C/C1=N\NC(=O)c1ccc(C2CCCCC2)cc1 (centres undefined),4.8,78
CC(=O)N/N=C1\CC2(CCNCC2)OC1C (centres undefined),180,
CCCC(=O)N/N=C1\CC2(CCN(C)CC2)OC1C (centres undefined),65,
CC1OC2(CCN(C)CC2)C/C1=N\NC(=O)Cc1ccccc1 (centres undefined),30,
CC1OC2(CCN(C)CC2)C/C1=N\NC(=O)Cc1ccc2ccccc2c1 (centres undefined),10,
CC1OC2(CCN(C)CC2)C/C1=N\NC(=O)C1CCCCC1 (centres undefined),38,
CC1OC2(CCN(C)CC2)C/C1=N\NC(=O)CCCCC1CCCCC1 (centres undefined),8,
CCCCCCCC(=O)N/N=C1\CC2(CCN(C)CC2)OC1C (centres undefined),9.5,81
CC1OC2(CCN(C)CC2)C/C1=N\NC(=O)CCCc1ccccc1 (centres undefined),34,
CCC(=O)N/N=C1\CC2(CCN(C)CC2)OC1C (centres undefined),76,
CC(C)C(=O)N/N=C1\CC2(CCN(C)CC2)OC1C (centres undefined),28,
CC(=O)N/N=C1\CC2(CCN(C)CC2)OC1C (centres undefined),100,91
CC1OC2(CCN(C)CC2)C/C1=N\NC(=O)CCCC1CCCCC1 (centres undefined),13.6,
CC1OC2(CCN(C)CC2)C/C1=N\NC(=O)C(C)(C)C (centres undefined),15.2,
CC(=O)N(C)/N=C1\CC2(CCN(C)CC2)OC1C (centres undefined),60,
